Earlier results on four compounds are cited in patent publication US20110045089A1, “VITAMIN K3 DERIVATIVE / NSA FORMULATION” (priority 2009, published 2011).

The conditions of data set [1]: for Total vitamin retention %: 1 × 2 × 3 × 4 (product of the four stress factors); for Vitamin retention, stress factor 1: vitamin premix without choline chloride: 2 months; for Vitamin retention, stress factor 4: petfood storage time: 8 months; for Vitamin retention, stress factor 2: extrusion temperature: 105° C.; for Vitamin retention, stress factor 3: drying/enrobing: 180° C.

The conditions of data set [2]: premix containing choline chloride, after 6 months of storage (FIG. 2).
For data set [3] the following is noted: 80° C., high humidity.

The structures appear in SMILES notation.

Turning to `CC1(S(=O)(=O)O)CC(=O)c2ccccc2C1=O.NC(=O)c1cccnc1` (stereo not shown) [MNB, Nicotinamide Menadione Bisulfite], in data set [1], the “Total vitamin retention %” value is listed as 25%; the “Vitamin retention, stress factor 1: vitamin premix without choline chloride” value is 100%; the “Vitamin retention, stress factor 4: petfood storage time” value is recorded as 47%; the “Vitamin retention, stress factor 2: extrusion temperature” value is 70%. Moreover, the “Vitamin retention, stress factor 3: drying/enrobing” value (shortened to “Vitamin retention … drying/enrobing”) in data set [1] is 76%. The “Original amount of K3 remaining in premix” value in data set [2] was at most 70%. For the same compound, in data set [3], the “Fraction decomposed during pelleting process” value is recorded as 50%.

For `CC1(S(=O)(=O)O)CC(=O)c2ccccc2C1=O.Cc1cc(C)nc(O)n1` (stereo not shown) [MPB, 2-hydroxy-4,6-dimethyl-pyrimidinium Menadione Bisulfite], in data set [1], the “Total vitamin retention %” value was 19%; the “Vitamin retention, stress factor 1: vitamin premix without choline chloride” value was 100%; the “Vitamin retention, stress factor 4: petfood storage time” value is listed as 42%; the “Vitamin retention, stress factor 2: extrusion temperature” value was 65%. Besides, the “Vitamin retention … drying/enrobing” value in data set [1] is 70%.

`CC1(S(=O)(=O)[O-])CC(=O)c2ccccc2C1=O.[Na+]` (stereo not shown) [MSB, Menadione Sodium Bisulphite]: in data set [1], the “Total vitamin retention %” value is on record as 5%; the “Vitamin retention, stress factor 1: vitamin premix without choline chloride” value is reported as 98%; the “Vitamin retention, stress factor 4: petfood storage time” value was 27%; the “Vitamin retention, stress factor 2: extrusion temperature” value was 50%. The “Vitamin retention … drying/enrobing” value in data set [1] is recorded as 37%.

With `NC(=O)c1cccnc1` [Niacinamide, nicotinamide], in data set [1], the “Total vitamin retention %” value is on record as 58%; the “Vitamin retention, stress factor 1: vitamin premix without choline chloride” value is 100%; the “Vitamin retention, stress factor 4: petfood storage time” value is reported as 79%; the “Vitamin retention, stress factor 2: extrusion temperature” value is reported as 87%. Besides, in data set [1], the “Vitamin retention … drying/enrobing” value is on record as 84%.
